# Numbers after ± are expanded uncertainties.
# Test: excess molar enthalpy (molar enthalpy of mixing); xn = mol fraction of the nth substance listed
# Conditions: Fluid (supercritical or subcritical phases)
smiles,measurement,setting,value
COC(=O)OC [dimethyl carbonate] + O=C=O,excess molar enthalpy,"298.15 K, 5000 kPa, x2 = 0.0793",-0.207 ± 0.00382 kcal/mol
same,excess molar enthalpy,"298.15 K, 5000 kPa, x2 = 0.1538",-0.427 ± 0.00693 kcal/mol
same,excess molar enthalpy,"298.15 K, 5000 kPa, x2 = 0.224",-0.636 ± 0.0103 kcal/mol
same,excess molar enthalpy,"298.15 K, 5000 kPa, x2 = 0.2902",-0.832 ± 0.0131 kcal/mol
same,excess molar enthalpy,"298.15 K, 5000 kPa, x2 = 0.3528",-1.02 ± 0.0163 kcal/mol
same,excess molar enthalpy,"298.15 K, 5000 kPa, x2 = 0.4121",-1.15 ± 0.0182 kcal/mol
same,excess molar enthalpy,"298.15 K, 5000 kPa, x2 = 0.4683",-1.33 ± 0.021 kcal/mol
same,excess molar enthalpy,"298.15 K, 5000 kPa, x2 = 0.5216",-1.48 ± 0.0232 kcal/mol
same,excess molar enthalpy,"298.15 K, 5000 kPa, x2 = 0.5723",-1.59 ± 0.0239 kcal/mol
same,excess molar enthalpy,"298.15 K, 5000 kPa, x2 = 0.6206",-1.71 ± 0.0263 kcal/mol
same,excess molar enthalpy,"298.15 K, 5000 kPa, x2 = 0.6666",-1.82 ± 0.0287 kcal/mol
same,excess molar enthalpy,"298.15 K, 5000 kPa, x2 = 0.7104",-1.92 ± 0.0311 kcal/mol
same,excess molar enthalpy,"298.15 K, 5000 kPa, x2 = 0.7523",-1.99 ± 0.0311 kcal/mol
same,excess molar enthalpy,"298.15 K, 5000 kPa, x2 = 0.7924",-2.07 ± 0.0335 kcal/mol
same,excess molar enthalpy,"298.15 K, 5000 kPa, x2 = 0.8307",-2.13 ± 0.0335 kcal/mol
same,excess molar enthalpy,"298.15 K, 5000 kPa, x2 = 0.8382",-2.09 ± 0.0335 kcal/mol
same,excess molar enthalpy,"298.15 K, 5000 kPa, x2 = 0.8674",-1.69 ± 0.0263 kcal/mol
same,excess molar enthalpy,"298.15 K, 5000 kPa, x2 = 0.9026",-1.26 ± 0.0201 kcal/mol
same,excess molar enthalpy,"298.15 K, 5000 kPa, x2 = 0.9364",-0.785 ± 0.0124 kcal/mol
same,excess molar enthalpy,"298.15 K, 5000 kPa, x2 = 0.9688",-0.384 ± 0.00621 kcal/mol
same,excess molar enthalpy,"298.15 K, 5000 kPa, x2 = 0.9969",0.0153 ± 0.00191 kcal/mol
same,excess molar enthalpy,"298.15 K, 5500 kPa, x2 = 0.1548",-0.4 ± 0.00669 kcal/mol
same,excess molar enthalpy,"298.15 K, 5500 kPa, x2 = 0.2253",-0.618 ± 0.01 kcal/mol
same,excess molar enthalpy,"298.15 K, 5500 kPa, x2 = 0.2918",-0.794 ± 0.0127 kcal/mol
same,excess molar enthalpy,"298.15 K, 5500 kPa, x2 = 0.3546",-0.967 ± 0.0153 kcal/mol
same,excess molar enthalpy,"298.15 K, 5500 kPa, x2 = 0.4139",-1.12 ± 0.0177 kcal/mol
same,excess molar enthalpy,"298.15 K, 5500 kPa, x2 = 0.4702",-1.27 ± 0.0201 kcal/mol
same,excess molar enthalpy,"298.15 K, 5500 kPa, x2 = 0.5235",-1.4 ± 0.0222 kcal/mol
same,excess molar enthalpy,"298.15 K, 5500 kPa, x2 = 0.5742",-1.52 ± 0.0239 kcal/mol
same,excess molar enthalpy,"298.15 K, 5500 kPa, x2 = 0.6223",-1.61 ± 0.0263 kcal/mol
same,excess molar enthalpy,"298.15 K, 5500 kPa, x2 = 0.6682",-1.73 ± 0.0263 kcal/mol
same,excess molar enthalpy,"298.15 K, 5500 kPa, x2 = 0.712",-1.82 ± 0.0287 kcal/mol
same,excess molar enthalpy,"298.15 K, 5500 kPa, x2 = 0.7537",-1.91 ± 0.0287 kcal/mol
same,excess molar enthalpy,"298.15 K, 5500 kPa, x2 = 0.7936",-1.98 ± 0.0311 kcal/mol
same,excess molar enthalpy,"298.15 K, 5500 kPa, x2 = 0.8318",-2.02 ± 0.0311 kcal/mol
same,excess molar enthalpy,"298.15 K, 5500 kPa, x2 = 0.8683",-2.04 ± 0.0311 kcal/mol
same,excess molar enthalpy,"298.15 K, 5500 kPa, x2 = 0.9033",-2.03 ± 0.0311 kcal/mol
same,excess molar enthalpy,"298.15 K, 5500 kPa, x2 = 0.9368",-1.51 ± 0.0237 kcal/mol
same,excess molar enthalpy,"298.15 K, 5500 kPa, x2 = 0.9691",-0.767 ± 0.0122 kcal/mol
same,excess molar enthalpy,"298.15 K, 6000 kPa, x2 = 0.1557",-0.389 ± 0.00645 kcal/mol
same,excess molar enthalpy,"298.15 K, 6000 kPa, x2 = 0.2265",-0.558 ± 0.00908 kcal/mol
same,excess molar enthalpy,"298.15 K, 6000 kPa, x2 = 0.2932",-0.797 ± 0.0127 kcal/mol
same,excess molar enthalpy,"298.15 K, 6000 kPa, x2 = 0.3561",-0.905 ± 0.0143 kcal/mol
same,excess molar enthalpy,"298.15 K, 6000 kPa, x2 = 0.4156",-1.04 ± 0.0165 kcal/mol
same,excess molar enthalpy,"298.15 K, 6000 kPa, x2 = 0.4718",-1.19 ± 0.0189 kcal/mol
same,excess molar enthalpy,"298.15 K, 6000 kPa, x2 = 0.5252",-1.29 ± 0.0203 kcal/mol
same,excess molar enthalpy,"298.15 K, 6000 kPa, x2 = 0.5758",-1.4 ± 0.022 kcal/mol
same,excess molar enthalpy,"298.15 K, 6000 kPa, x2 = 0.6239",-1.52 ± 0.0239 kcal/mol
same,excess molar enthalpy,"298.15 K, 6000 kPa, x2 = 0.6697",-1.62 ± 0.0263 kcal/mol
same,excess molar enthalpy,"298.15 K, 6000 kPa, x2 = 0.7134",-1.69 ± 0.0263 kcal/mol
same,excess molar enthalpy,"298.15 K, 6000 kPa, x2 = 0.755",-1.73 ± 0.0263 kcal/mol
same,excess molar enthalpy,"298.15 K, 6000 kPa, x2 = 0.7947",-1.8 ± 0.0287 kcal/mol
same,excess molar enthalpy,"298.15 K, 6000 kPa, x2 = 0.8327",-1.85 ± 0.0287 kcal/mol
same,excess molar enthalpy,"298.15 K, 6000 kPa, x2 = 0.8691",-1.87 ± 0.0287 kcal/mol
same,excess molar enthalpy,"298.15 K, 6000 kPa, x2 = 0.9039",-1.89 ± 0.0287 kcal/mol
same,excess molar enthalpy,"298.15 K, 6000 kPa, x2 = 0.9502",-1.86 ± 0.0287 kcal/mol
same,excess molar enthalpy,"298.15 K, 6000 kPa, x2 = 0.9693",-1.78 ± 0.0287 kcal/mol
same,excess molar enthalpy,"298.15 K, 6000 kPa, x2 = 0.9817",-0.864 ± 0.0139 kcal/mol
same,excess molar enthalpy,"303.15 K, 5000 kPa, x2 = 0.0793",-0.237 ± 0.00406 kcal/mol
same,excess molar enthalpy,"303.15 K, 5000 kPa, x2 = 0.1538",-0.446 ± 0.00717 kcal/mol
same,excess molar enthalpy,"303.15 K, 5000 kPa, x2 = 0.224",-0.641 ± 0.0103 kcal/mol
same,excess molar enthalpy,"303.15 K, 5000 kPa, x2 = 0.2902",-0.833 ± 0.0134 kcal/mol
same,excess molar enthalpy,"303.15 K, 5000 kPa, x2 = 0.3528",-1.01 ± 0.016 kcal/mol
same,excess molar enthalpy,"303.15 K, 5000 kPa, x2 = 0.4121",-1.19 ± 0.0189 kcal/mol
same,excess molar enthalpy,"303.15 K, 5000 kPa, x2 = 0.4683",-1.33 ± 0.021 kcal/mol
same,excess molar enthalpy,"303.15 K, 5000 kPa, x2 = 0.5216",-1.48 ± 0.0234 kcal/mol
same,excess molar enthalpy,"303.15 K, 5000 kPa, x2 = 0.5723",-1.6 ± 0.0263 kcal/mol
same,excess molar enthalpy,"303.15 K, 5000 kPa, x2 = 0.6206",-1.71 ± 0.0263 kcal/mol
same,excess molar enthalpy,"303.15 K, 5000 kPa, x2 = 0.6666",-1.83 ± 0.0287 kcal/mol
same,excess molar enthalpy,"303.15 K, 5000 kPa, x2 = 0.7104",-1.93 ± 0.0311 kcal/mol
same,excess molar enthalpy,"303.15 K, 5000 kPa, x2 = 0.7523",-2.01 ± 0.0311 kcal/mol
same,excess molar enthalpy,"303.15 K, 5000 kPa, x2 = 0.7686",-2.04 ± 0.0311 kcal/mol
same,excess molar enthalpy,"303.15 K, 5000 kPa, x2 = 0.7766",-2.04 ± 0.0311 kcal/mol
same,excess molar enthalpy,"303.15 K, 5000 kPa, x2 = 0.8307",-1.48 ± 0.0234 kcal/mol
same,excess molar enthalpy,"303.15 K, 5000 kPa, x2 = 0.8674",-1.15 ± 0.0182 kcal/mol
same,excess molar enthalpy,"303.15 K, 5000 kPa, x2 = 0.9026",-0.913 ± 0.0146 kcal/mol
same,excess molar enthalpy,"303.15 K, 5000 kPa, x2 = 0.9364",-0.571 ± 0.00932 kcal/mol
same,excess molar enthalpy,"303.15 K, 5000 kPa, x2 = 0.9688",-0.254 ± 0.0043 kcal/mol
same,excess molar enthalpy,"303.15 K, 5500 kPa, x2 = 0.0798",-0.214 ± 0.00382 kcal/mol
same,excess molar enthalpy,"303.15 K, 5500 kPa, x2 = 0.1548",-0.438 ± 0.00717 kcal/mol
same,excess molar enthalpy,"303.15 K, 5500 kPa, x2 = 0.2253",-0.619 ± 0.01 kcal/mol
same,excess molar enthalpy,"303.15 K, 5500 kPa, x2 = 0.2918",-0.798 ± 0.0127 kcal/mol
same,excess molar enthalpy,"303.15 K, 5500 kPa, x2 = 0.3546",-0.989 ± 0.0158 kcal/mol
same,excess molar enthalpy,"303.15 K, 5500 kPa, x2 = 0.4139",-1.15 ± 0.0182 kcal/mol
same,excess molar enthalpy,"303.15 K, 5500 kPa, x2 = 0.4702",-1.3 ± 0.0206 kcal/mol
same,excess molar enthalpy,"303.15 K, 5500 kPa, x2 = 0.5235",-1.41 ± 0.0222 kcal/mol
same,excess molar enthalpy,"303.15 K, 5500 kPa, x2 = 0.5742",-1.54 ± 0.0239 kcal/mol
same,excess molar enthalpy,"303.15 K, 5500 kPa, x2 = 0.6223",-1.64 ± 0.0263 kcal/mol
same,excess molar enthalpy,"303.15 K, 5500 kPa, x2 = 0.6682",-1.75 ± 0.0287 kcal/mol
same,excess molar enthalpy,"303.15 K, 5500 kPa, x2 = 0.712",-1.85 ± 0.0287 kcal/mol
same,excess molar enthalpy,"303.15 K, 5500 kPa, x2 = 0.7537",-1.92 ± 0.0311 kcal/mol
same,excess molar enthalpy,"303.15 K, 5500 kPa, x2 = 0.7936",-1.98 ± 0.0311 kcal/mol
same,excess molar enthalpy,"303.15 K, 5500 kPa, x2 = 0.8318",-2.02 ± 0.0311 kcal/mol
same,excess molar enthalpy,"303.15 K, 5500 kPa, x2 = 0.8392",-2.01 ± 0.0311 kcal/mol
same,excess molar enthalpy,"303.15 K, 5500 kPa, x2 = 0.8466",-1.89 ± 0.0287 kcal/mol
same,excess molar enthalpy,"303.15 K, 5500 kPa, x2 = 0.8683",-1.62 ± 0.0263 kcal/mol
same,excess molar enthalpy,"303.15 K, 5500 kPa, x2 = 0.9033",-1.18 ± 0.0186 kcal/mol
same,excess molar enthalpy,"303.15 K, 5500 kPa, x2 = 0.9368",-0.733 ± 0.0117 kcal/mol
same,excess molar enthalpy,"303.15 K, 5500 kPa, x2 = 0.9691",-0.331 ± 0.0055 kcal/mol
same,excess molar enthalpy,"303.15 K, 6000 kPa, x2 = 0.0803",-0.202 ± 0.00382 kcal/mol
same,excess molar enthalpy,"303.15 K, 6000 kPa, x2 = 0.1557",-0.41 ± 0.00669 kcal/mol
same,excess molar enthalpy,"303.15 K, 6000 kPa, x2 = 0.2265",-0.6 ± 0.00956 kcal/mol
same,excess molar enthalpy,"303.15 K, 6000 kPa, x2 = 0.2932",-0.78 ± 0.0124 kcal/mol
same,excess molar enthalpy,"303.15 K, 6000 kPa, x2 = 0.3561",-0.923 ± 0.0146 kcal/mol
same,excess molar enthalpy,"303.15 K, 6000 kPa, x2 = 0.4156",-1.1 ± 0.0174 kcal/mol
same,excess molar enthalpy,"303.15 K, 6000 kPa, x2 = 0.4718",-1.23 ± 0.0194 kcal/mol
same,excess molar enthalpy,"303.15 K, 6000 kPa, x2 = 0.5252",-1.36 ± 0.0215 kcal/mol
same,excess molar enthalpy,"303.15 K, 6000 kPa, x2 = 0.5758",-1.47 ± 0.0232 kcal/mol
same,excess molar enthalpy,"303.15 K, 6000 kPa, x2 = 0.6239",-1.58 ± 0.0239 kcal/mol
same,excess molar enthalpy,"303.15 K, 6000 kPa, x2 = 0.6697",-1.67 ± 0.0263 kcal/mol
same,excess molar enthalpy,"303.15 K, 6000 kPa, x2 = 0.7134",-1.76 ± 0.0287 kcal/mol
same,excess molar enthalpy,"303.15 K, 6000 kPa, x2 = 0.755",-1.82 ± 0.0287 kcal/mol

# Reference: the NIST ThermoML archive (doi:10.1021/je050089u)
